Reference: patent US9518060B2, “Substituted pyrrolo[3,4-c]pyrazoles as PKC kinase inhibitors” (PFIZER INC., priority 2007, dated 2016)

Target: Protein Kinase C beta 2 (PKCβII) (Homo sapiens (Human), UniProt P05771)
Assay: PKCβII coupled spectrophotometric kinase assay (PK/LDH, NADH absorbance at 340 nm)
Assay type: biochemical
Conditions: apparent Ki, ATP competitive inhibition model (Morrison equation); 0.1 mM ATP, 5 nM PKC, 30° C.; read-out: Ki app
Procedure: Protein Kinase C beta 2 (PKCβII) catalyzes the production of ADP from ATP that accompanies the phosphoryl transfer to the PKC Pseudosubstrate peptide (A→S, RFARKGSLRQKNV). This transfer is coupled to the oxidation of β-NADH through the activities of Pyruvate Kinase (PK) and Lactate Dehydrogenase (LDH). β-NADH conversion to NAD+ is monitored by the decrease in absorbance at 340 nm (e=6.22 cm^−1 mM^−1) using a Molecular Devices SPECTRA max PLUS spectrophotometer.
A typical assay was carried out on a 96-well, clear microtiter plate in a Molecular Devices spectrophotometer for 20 minutes at 30° C. in 0.1 mL of assay buffer containing 50 mM HEPES, pH 7.4, 5 nM PKC, 23 units of pyruvate kinase, 33 units of lactate dehydrogenase, 0.15 mM peptide, 0.1 mM ATP, 1 mM DTT, 4 mM PEP, 8 mM MgCl2, 0.3 mM NADH, 60 mM CaCl2, 10 mg/mL PS, 50 ng/mL PMA, 7.5% DMSO and from about 10,000 nM to 0.169 nM compound inhibitor. Stock solutions of 3-sn-phosphatidyl-L-serine (PS) and phorbol-12-myristate-13-acetate (PMA) were sonicated for 30 seconds just prior to addition to assay buffer and assays were initiated by the addition of 100 μM ATP.
Steady-state kinetic parameters for the bi-bi kinase reaction were determined at saturating phospho-acceptor peptide substrate concentration (0.15 mM) by fitting initial velocity data to the Michaelis-Menten equation, v=Vmax[S]/(KM+[S]) where v is the measured initial velocity, Vmax is the maximal enzyme velocity, [S] is the ATP substrate concentration, and KM is the Michealis constant for ATP. Enzyme turnover values (kcat) were calculated according to […], where [E] is the total enzyme concentration. Enzyme inhibition constants (apparent Ki values) were determined by fitting initial velocities at variable inhibitor concentrations to a model for ATP competitive inhibition based on the Morrison equation). Morrison, J. F., Biochim. Biophys Acta 185: 269-286 (1969).

Sequence of Protein Kinase C beta 2 (PKCβII) (P05771 other isoform, or with tags, fused parts or gaps): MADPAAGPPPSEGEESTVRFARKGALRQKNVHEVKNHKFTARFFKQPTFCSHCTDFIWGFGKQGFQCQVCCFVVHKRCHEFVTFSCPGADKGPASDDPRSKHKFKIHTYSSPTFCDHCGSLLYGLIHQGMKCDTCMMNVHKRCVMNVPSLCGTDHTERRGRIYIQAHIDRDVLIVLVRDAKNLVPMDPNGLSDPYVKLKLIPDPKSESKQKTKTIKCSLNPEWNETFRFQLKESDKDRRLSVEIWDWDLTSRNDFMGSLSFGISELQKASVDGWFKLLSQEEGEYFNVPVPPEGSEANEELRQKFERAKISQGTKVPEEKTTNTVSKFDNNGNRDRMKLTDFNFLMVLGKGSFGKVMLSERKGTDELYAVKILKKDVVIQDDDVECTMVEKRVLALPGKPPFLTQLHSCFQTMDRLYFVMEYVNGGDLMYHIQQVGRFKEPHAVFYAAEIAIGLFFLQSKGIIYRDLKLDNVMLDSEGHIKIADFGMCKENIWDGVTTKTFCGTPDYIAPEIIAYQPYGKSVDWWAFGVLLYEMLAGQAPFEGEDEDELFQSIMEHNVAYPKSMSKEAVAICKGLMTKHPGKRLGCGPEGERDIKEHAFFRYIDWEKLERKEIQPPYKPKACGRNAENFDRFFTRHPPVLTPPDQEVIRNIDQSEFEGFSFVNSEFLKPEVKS

Compared with `Cc1ccc(F)c(Nc2n[nH]c3c2CN(C(=O)N2CC(C)(C)N(C)C[C@@H]2C)C3(C)C)n1` [Example J6, N-(3-fluoro-6-methylpyridin-2-yl)-6,6-dimethyl-5-{[(2S)-2,4,5,5-tetramethylpiperazin-1-yl]carbonyl}-1,4,5,6-tetrahydropyrrolo[3,4-c]pyrazol-3-amine], `Cc1ccc(F)c(Nc2n[nH]c3c2CN(C(=O)N2C[C@@H](C)N(C)C[C@@H]2C)C3(C)C)n1` [Example J3, N-(3-fluoro-6-methylpyridin-2-yl)-6,6-dimethyl-5-{[(2S,5R)-2,4,5-trimethylpiperazin-1-yl]carbonyl}-1,4,5,6-tetrahydropyrrolo[3,4-c]pyrazol-3-amine] is 2.2-fold higher in Ki: 0.00117 µM for the first, 0.00263 µM for the second. The first binds more tightly here.

Going from `COCCCOc1ncc(F)c(Nc2n[nH]c3c2CN(C(=O)N2CC(C)(C)N(C)C[C@@H]2C)C3(C)C)n1` [Example K9, N-[5-fluoro-2-(3-methoxypropoxy)pyrimidin-4-yl]-6,6-dimethyl-5-{[(2S)-2,4,5,5-tetramethylpiperazin-1-yl]carbonyl}-1,4,5,6-tetrahydropyrrolo[3,4-c]pyrazol-3-amine] to `CCOc1ncc(F)c(Nc2n[nH]c3c2CN(C(=O)N2CC(C)(C)N(C)C[C@@H]2C)C3(C)C)n1` [Example K3, N-(2-ethoxy-5-fluoropyrimidin-4-yl)-6,6-dimethyl-5-{[(2S)-2,4,5,5-tetramethylpiperazin-1-yl]carbonyl}-1,4,5,6-tetrahydropyrrolo[3,4-c]pyrazol-3-amine], the Ki falls from 0.0128 µM to 0.000912 µM (14-fold). The second binds more tightly here.

Going from `CCN1C[C@H](C)N(C(=O)N2Cc3c(Nc4nc(C)nc(C)c4F)n[nH]c3C2(C)C)C[C@H]1C` [AA3, 5-{[(2S,5R)-4-ethyl-2,5-dimethylpiperazin-1-yl]carbonyl}-N-(5-fluoro-2,6-dimethylpyrimidin-4-yl)-6,6-dimethyl-1,4,5,6-tetrahydropyrrolo[3,4-c]pyrazol-3-amine] to `Cc1ncc(F)c(Nc2n[nH]c3c2CN(C(=O)N2C[C@@H](C)N(CCCO)C[C@@H]2C)C3(C)C)n1` (stereo in doubt) [AA5, [3-(5-fluoro-2-methyl-pyrimidin-4-ylamino)-6,6-dimethyl-4,6-dihydro-1H-pyrrolo[3,4-c]pyrazol-5-yl]-[4-(3-hydroxy-propyl)-2,5-dimethyl-piperazin-1-yl]-methanone], the Ki rises from 0.0148 µM to 0.0291 µM (2-fold).

`C[C@@H]1CN(C(=O)N2Cc3c(Nc4nc(N5CCOCC5)ncc4F)n[nH]c3C2(C)C)[C@@H](C)CN1C` [Example B7, N-(5-fluoro-2-morpholin-4-ylpyrimidin-4-yl)-6,6-dimethyl-5-{[(2S,5R)-2,4,5-trimethylpiperazin-1-yl]carbonyl}-1,4,5,6-tetrahydropyrrolo[3,4-c]pyrazol-3-amine] and `Cc1ncc(F)c(Nc2n[nH]c3c2CN(C(=O)N2C[C@@H](C)N(C4CCOCC4)C[C@@H]2C)C3(C)C)n1` [Example H7, 5-{[(2S,5R)-2,5-dimethyl-4-(tetrahydro-2H-pyran-4-yl)piperazin-1-yl]carbonyl}-N-(5-fluoro-2-methylpyrimidin-4-yl)-6,6-dimethyl-1,4,5,6-tetrahydropyrrolo[3,4-c]pyrazol-3-amine] are within 1.5-fold of each other in Ki: 0.0201 µM for the first, 0.022 µM for the second.

First: CCNc1ncc(F)c(Nc2n[nH]c3c2CN(C(=O)N2C[C@@H](C)N(CCC(F)(F)F)C[C@@H]2C)C3(C)C)n1 [Example B5, N4-(5-{[(2S,5R)-2,5-dimethyl-4-(3,3,3-trifluoropropyl)piperazin-1-yl]carbonyl}-6,6-dimethyl-1,4,5,6-tetrahydropyrrolo[3,4-c]pyrazol-3-yl)-N2-ethyl-5-fluoropyrimidine-2,4-diamine]
Second: CCc1ncc(F)c(Nc2n[nH]c3c2CN(C(=O)N2C[C@@H](C)N(CCCOC)C[C@@H]2C)C3(C)C)n1 [Example E2, N-(2-ethyl-5-fluoropyrimidin-4-yl)-5-{[(2S,5R)-4-(3-methoxypropyl)-2,5-dimethylpiperazin-1-yl]carbonyl}-6,6-dimethyl-1,4,5,6-tetrahydropyrrolo[3,4-c]pyrazol-3-amine]
The Ki of the first is 18-fold higher: 0.0298 µM for the first, 0.00164 µM for the second.

Compared with `CCOc1ncc(F)c(Nc2n[nH]c3c2CN(C(=O)C2CCN(C4CCOCC4)CC2)C3(C)C)n1` [Example L6, N-(2-ethoxy-5-fluoropyrimidin-4-yl)-6,6-dimethyl-5-{[1-(tetrahydro-2H-pyran-4-yl)piperidin-4-yl]carbonyl}-1,4,5,6-tetrahydropyrrolo[3,4-c]pyrazol-3-amine], `CCOc1ncc(F)c(Nc2n[nH]c3c2CN(C(=O)N2C[C@@H](C)N(CC4CCOCC4)C[C@@H]2C)C3(C)C)n1` [Example K19, 5-{[(2S,5R)-2,5-dimethyl-4-(tetrahydro-2H-pyran-4-ylmethyl)piperazin-1-yl]carbonyl}-N-(2-ethoxy-5-fluoropyrimidin-4-yl)-6,6-dimethyl-1,4,5,6-tetrahydropyrrolo[3,4-c]pyrazol-3-amine] is lower in Ki: 0.181 µM for the first, < 0.01 µM for the second.

First: CCOc1ncc(F)c(Nc2n[nH]c3c2CN(C(=O)N2C[C@]4(C)CCCN4C[C@@H]2C)C3(C)C)n1 [Example K15, 5-{[(3S,8aS)-3,8a-dimethylhexahydropyrrolo[1,2-a]pyrazin-2(1H)-yl]carbonyl}-N-(2-ethoxy-5-fluoropyrimidin-4-yl)-6,6-dimethyl-1,4,5,6-tetrahydropyrrolo[3,4-c]pyrazol-3-amine]
Second: CCc1ncc(F)c(Nc2n[nH]c3c2CN(C(=O)N2CC(C)(C)N(C)C[C@@H]2C)C3(C)C)n1 [Example D1, N-(2-ethyl-5-fluoropyrimidin-4-yl)-6,6-dimethyl-5-{[(2S)-2,4,5,5-tetramethylpiperazin-1-yl]carbonyl}-1,4,5,6-tetrahydropyrrolo[3,4-c]pyrazol-3-amine]
The Ki of the first is 2.1-fold higher: 0.0112 µM for the first, 0.00543 µM for the second.

`CC[C@@H]1CN(C(=O)N2Cc3c(Nc4nc(C)ncc4F)n[nH]c3C2(C)C)CCN1C` [Example H5, 5-{[(3R)-3-ethyl-4-methylpiperazin-1-yl]carbonyl}-N-(5-fluoro-2-methylpyrimidin-4-yl)-6,6-dimethyl-1,4,5,6-tetrahydropyrrolo[3,4-c]pyrazol-3-amine] and `COc1ncc(F)c(Nc2n[nH]c3c2CN(C(=O)N2CC(CCO)N(C)C[C@@H]2C)C3(C)C)n1` (single isomer, unassigned) [Example K25] are within 1.5-fold of each other in Ki: 0.0508 µM for the first, 0.0365 µM for the second.

`CCc1ncc(F)c(Nc2n[nH]c3c2CN(C(=O)C2(F)CCN(C)CC2)C3(C)C)n1` [Example G1, N-(2-ethyl-5-fluoropyrimidin-4-yl)-5-[(4-fluoro-1-methylpiperidin-4-yl)carbonyl]-6,6-dimethyl-1,4,5,6-tetrahydropyrrolo[3,4-c]pyrazol-3-amine] and `CCNc1ncc(F)c(Nc2n[nH]c3c2CN(C(=O)N2C[C@@H]4CCCN4C[C@@H]2C)C3(C)C)n1` [Example B2, N^4-(6,6-dimethyl-5-{[(3S,8aS)-3-methylhexahydropyrrolo[1,2-a]pyrazin-2(1H)-yl]carbonyl}-1,4,5,6-tetrahydropyrrolo[3,4-c]pyrazol-3-yl)-N^2-ethyl-5-fluoropyrimidine-2,4-diamine] are within 1.5-fold of each other in Ki: 0.0254 µM for the first, 0.0245 µM for the second.

Going from `CCOc1ccnc(Nc2n[nH]c3c2CN(C(=O)N2C[C@@H](C)N(CCCOC)C[C@@H]2C)C3(C)C)n1` [Example M2, N-(4-ethoxypyrimidin-2-yl)-5-{[(2S,5R)-4-(3-methoxypropyl)-2,5-dimethylpiperazin-1-yl]carbonyl}-6,6-dimethyl-1,4,5,6-tetrahydropyrrolo[3,4-c]pyrazol-3-amine] to `CCOc1ncc(F)c(Nc2n[nH]c3c2CN(C(=O)N2C[C@@H](C)N(CCCOC)C[C@@H]2C)C3(C)C)n1` [Example K5], the Ki falls from 0.0161 µM to 0.000683 µM (24-fold). The second binds more tightly here.

`C[C@@H]1CN(C(=O)N2Cc3c(Nc4ccnc(C#N)n4)n[nH]c3C2(C)C)[C@@H](C)CN1C` [Example B6, 4-[(6,6-dimethyl-5-{[(2S,5R)-2,4,5-trimethylpiperazin-1-yl]carbonyl}-1,4,5,6-tetrahydropyrrolo[3,4-c]pyrazol-3-yl)amino]pyrimidine-2-carbonitrile] and `CCNc1nccc(Nc2n[nH]c3c2CN(C(=O)N2CC(C)(C)N(C)C[C@@H]2C)C3(C)C)n1` [Example A8, N^4-(6,6-dimethyl-5-{[(2S)-2,4,5,5-tetramethylpiperazin-1-yl]carbonyl}-1,4,5,6-tetrahydropyrrolo[3,4-c]pyrazol-3-yl)-N^2-ethylpyrimidine-2,4-diamine] are within 1.5-fold of each other in Ki: 0.00243 µM for the first, 0.00339 µM for the second.

`Cc1ccnc(Nc2n[nH]c3c2CN(C(=O)N2C[C@@H](C)N(C4CCOCC4)C[C@@H]2C)C3(C)C)n1` [Example J12, 5-{[(2S,5R)-2,5-dimethyl-4-(tetrahydro-2H-pyran-4-yl)piperazin-1-yl]carbonyl}-6,6-dimethyl-N-(4-methylpyrimidin-2-yl)-1,4,5,6-tetrahydropyrrolo[3,4-c]pyrazol-3-amine] was tested, and the Ki was < 0.01 µM.
